From US20170058314A1, “NOVEL METHODOLOGY FOR IDENTIFYING ANTI-PERSISTER ACTIVITY AND ANTIMICROBIAL SUSCEPTIBILITY FOR BORRELIA BURGDORFERI AND OTHER BACTERIA” (priority 2014, published 2017)
Structures can show the parent of a compound that is named as a salt.

Columns and labels:
[1] = test system: stationary phase B. burgdorferi persisters (strain B31); assay: SYBR Green I/PI viability assay (plate reader), FDA-approved drug library screen; details: for Ratio of Green/Red fluorescence, Primary screening / Ratio of Green/Red fluorescence, Rescreening (first column) / Ratio of Green/Red fluorescence, Rescreening (second column) / Residual viable cells (regression equation, SYBR Green I/PI assay): 50 μM; for Ratio of Green/Red fluorescence, Primary screening / Ratio of Green/Red fluorescence, Rescreening (first column) / Ratio of Green/Red fluorescence, Rescreening (second column): 7 days, stationary phase; for viability at 50 µM: Borreliella burgdorferi, 168 h, read-out: Residual viable cells (regression equation, SYBR Green I/PI assay); for Residual viable cells (regression equation, SYBR Green I/PI assay): 7-day old stationary phase cells treated for 7 days; for activity against stationary phase B. burgdorferi (words; SYBR Green I/PI assay): FDA drug screen
[2] = test system: round body form of B. burgdorferi; assay: SYBR Green I/PI assay on amoxicillin-induced round body form; details: for viability at 50 µM: Borreliella burgdorferi, 168 h, read-out: Residual viable cells (SYBR Green I/PI assay)

Molecule	Ratio of Green/Red fluorescence, Primary screening [1]	Ratio of Green/Red fluorescence, Rescreening (first column) [1]	Ratio of Green/Red fluorescence, Rescreening (second column) [1]	viability at 50 µM [1] [%]	viability at 50 µM [2] [%]	Ratios of green/red fluorescence, Primary screening ([2]; round body form, 50 μM, 7 days)	Ratios of green/red fluorescence, Rescreening (first column) ([2]; round body form, 50 μM, 7 days)	Ratios of green/red fluorescence, Rescreening (second column) ([2]; round body form, 50 μM, 7 days)	Residual viable cells (regression equation, SYBR Green I/PI assay) [1] [%]	Residual viable cells (SYBR Green I/PI assay) ([2]; round body form, 50 μM, 7 days) [%]	activity against stationary phase B. burgdorferi (words; SYBR Green I/PI assay) [1]
C=CC1=C(C(=O)O)N2C(=O)[C@@H](NC(=O)/C(=N\O)c3csc(N)n3)[C@H]2SC1 [Cefdinir]	6.88	7.51	6.29	48							
C=C1c2c(Cl)ccc(O)c2C(=O)C2=C(O)[C@]3(O)C(=O)C(C(N)=O)=C(O)[C@@H](N(C)C)[C@@H]3[C@@H](O)[C@H]12 [Meclocycline]					33	6.52	6.23	6.09			
CCN(CC)Cc1cc(Nc2ccnc3cc(Cl)ccc23)ccc1O [Amodiaquin]	6.79	6.44	6.85	45							
CO/N=C(\C(=O)N[C@@H]1C(=O)N2C(C(=O)O)=CCS[C@H]12)c1csc(N)n1 [Ceftizoxime]	6.94	6.83	7.03	49							
CO/N=C(\C(=O)N[C@@H]1C(=O)N2C(C(=O)O)=C(CSc3nnnn3C)CS[C@H]12)c1csc(N)n1 [Cefmenoxime]	6.82	7.59	6.32	48	32	6.18	6.33	6.28			
C=C[C@H]1C[N@@]2CC[C@H]1C[C@H]2[C@H](O)c1ccnc2ccc(OC)cc12 [Quinine hydrobromide]	7.00	6.85	6.88	50							
C[C@@H]1[C@H](O)[C@@H](C)/C=C/C=C/C=C/C=C/C=C/C=C/C=C/[C@H](O[C@@H]2O[C@H](C)[C@@H](O)[C@H](N)[C@@H]2O)C[C@@H]2O[C@](O)(C[C@@H](O)C[C@@H](O)[C@H](O)CC[C@@H](O)C[C@@H](O)CC(=O)O[C@H]1C)C[C@H](O)[C@H]2C(=O)O [Amphotericin B]	7.14	6.88	6.87						50		
CN[C@@H]1[C@@H](O)[C@@H](O[C@@H]2[C@@H](O)[C@H](O[C@H]3OC(CN)=CC[C@H]3N)[C@@H](N)C[C@H]2N)OC[C@]1(C)O [Sisomicin]					33	6.27	6.12	6.45			
CCn1cc(C(=O)O)c(=O)c2cc(F)c(N3CCNCC3)cc21 [norfloxacin]					41						
C[C@H]1[C@H](NC(=O)/C(=N\OC(C)(C)C(=O)O)c2csc(N)n2)C(=O)N1S(=O)(=O)O [Aztreonam]					34	6.16	6.38	6.33			
Nc1ccc(S(=O)(=O)O)cc1 [Sulfanilate]						6.49	6.03	6.40		34	
Collistin	7.15	7.26	7.23								
Nc1ccc(S(=O)(=O)Nc2nccs2)cc1 [Sulfathiazole]					31	6.38	6.18	6.17			
COc1cnc(NS(=O)(=O)c2ccc(N)cc2)nc1 [Sulfameter]	7.13	7.46	6.98	54							effective
Cn1nnnc1SCC1=C(C(=O)O)N2C(=O)[C@@H](NC(=O)[C@H](O)c3ccccc3)[C@H]2SC1 [Cefamandole]	6.71	7.73	6.52	50							
CCS(=O)(=O)CCn1c([N+](=O)[O-])cnc1C [Tinidazole]					33	6.24	6.21	6.36			
CC(=O)NS(=O)(=O)c1ccc(N)cc1 [Sulfacetamide]					29	6.26	6.14	6.20			

Molecule	Ratio of Green/Red fluorescence, Primary screening [1]	Ratio of Green/Red fluorescence, Rescreening (first column) [1]	Ratio of Green/Red fluorescence, Rescreening (second column) [1]	viability at 50 µM [1] [%]	viability at 50 µM [2] [%]	Ratios of green/red fluorescence, Primary screening ([2]; round body form, 50 μM, 7 days)	Ratios of green/red fluorescence, Rescreening (first column) ([2]; round body form, 50 μM, 7 days)	Ratios of green/red fluorescence, Rescreening (second column) ([2]; round body form, 50 μM, 7 days)	Residual viable cells (regression equation, SYBR Green I/PI assay) [1] [%]	Residual viable cells (SYBR Green I/PI assay) ([2]; round body form, 50 μM, 7 days) [%]	activity against stationary phase B. burgdorferi (words; SYBR Green I/PI assay) [1]
CC1(C)S[C@@H]2[C@H](NC(=O)[C@H](C(=O)O)c3ccsc3)C(=O)N2[C@H]1C(=O)O [Ticarcillin]	6.82	6.72	6.93	46							
COc1ccc(NS(=O)(=O)c2ccc(N)cc2)nn1 [Sulfamethoxypyridazine]					30	6.20	6.07	6.34			
CC(C)(O/N=C(\C(=O)N[C@@H]1C(=O)N2C(C(=O)[O-])=C(C[n+]3ccccc3)CS[C@H]12)c1csc(N)n1)C(=O)O [Ceftazidime]					34	6.20	6.34	6.37			
Cc1noc(NS(=O)(=O)c2ccc(N)cc2)c1C [Sulfisoxazole]					33	6.53	6.15	6.18			effective
C[C@H]1COc2c(N3CCN(C)CC3)c(F)cc3c(=O)c(C(=O)O)cn1c23 [levofloxacin]					41						
CO/N=C(\C(=O)N[C@@H]1C(=O)N2C(C(=O)[O-])=C(C[N+]3(C)CCCC3)CS[C@H]12)c1csc(N)n1 [Cefepime]	6.67	7.16	6.45	44							
O=C(O)C1=C(CSc2nnnn2CS(=O)(=O)O)CS[C@@H]2[C@H](NC(=O)[C@H](O)c3ccccc3)C(=O)N12 [Cefonicid]	6.86	7.54	6.07	46							
CN(C)[C@@H]1C(O)=C(C(N)=O)C(=O)[C@@]2(O)C(O)=C3C(=O)c4c(O)ccc(Cl)c4[C@@](C)(O)[C@H]3C[C@@H]12 [Chlortetracycline]					31	6.20	6.36	6.18			
[Bi] [Bismuth]	6.94	6.82	6.92						48		
O=[N+]([O-])c1ccc(/C=N/O)o1 [Nifuroxime]					30	6.10	6.32	6.22			
Cc1nnc(SCC2=C(C(=O)O)N3C(=O)[C@@H](NC(=O)Cn4cnnn4)[C@H]3SC2)s1 [Cefazolin]					34	6.23	6.34	6.29			
CN(C)[C@@H]1C(O)=C(C(=O)NCN2CCCC2)C(=O)[C@@]2(O)C(O)=C3C(=O)c4c(O)cccc4[C@@](C)(O)[C@H]3C[C@@H]12 [Rolitetracycline]					35	6.23	6.35	6.37			
C=CC1=C(C(=O)O)N2C(=O)[C@@H](NC(=O)/C(=N\OCC(=O)O)c3csc(N)n3)[C@H]2SC1 [Cefixime]					34	6.41	6.21	6.27			
NCc1ccccc1CC(=O)N[C@@H]1C(=O)N2C(C(=O)O)=C(CSc3nnnn3CC(=O)O)CS[C@H]12 [Ceforanide]	6.89	7.49	6.33	48							
C[C@@H]1O[C@@H]1P(=O)(O)O [Fosfomycin]					31	6.39	6.12	6.16			
COc1c(N2C[C@@H]3CCCN[C@@H]3C2)c(F)cc2c(=O)c(C(=O)O)cn(C3CC3)c12 [moxifloxacin]					49						
